In brackets after ≈: the same amount, converted by molar mass.
Tested on: wildtype E. coli growth inhibition, MIC
Test: wildtype E. coli growth inhibition, late-stage follow-up, counter-screen for IMP-1/VIM-2 inhibitor project, MIC, dose response (AID 449774)

| Structure (SMILES) | MIC |
| --- | --- |
| CC(=O)Nc1cc[c]([Hg+])cc1 | 1.56 µM |
| Cc1cc[c]([Hg+])cc1 | 1.56 µM |
| [Hg+][c]1ccccc1 | 0.39 µM |
| COc1cccc[c]1[Hg+] | 0.78 µM |
| C[C@@H](O)[C@H]1C(=O)N2C(C(=O)O)=C(SCCN=CN)C[C@H]12 | 0.78 µM (≈ 0.233 µg/mL) |
| O=C(O)c1ccc[c]([Hg+])c1 | 3.13 µM |
| O=C(O)c1cc[c]([Hg][Cl])cc1 | 12.5 µM |

— PubChem BioAssay AID449774 (The Scripps Research Institute Molecular Screening Center, 2010)
